What was measured:
clinical = type: in vivo; settings: human; for AUC(0-inf) / AUC(0-t) / Cmax / Tmax / half-life: both sexes, 80 mg
Protocol: […] […] N=58 healthy adult (male and female) subjects were enrolled. Dosing occurred in two groups. […] PK/statistics: PK parameters were calculated using standard noncompartmental approaches. […] The final ANOVA models included group, sequence, treatment, and period nested within group as fixed effects and subject nested within group-by-sequence as a random effect. The treatment-by-group term was excluded from the models for the groups combined, to be conservative.

[1] = Plasma PK of TH9507 in simvastatin studies (ELISA); type: in vivo, human
Protocol: 2 ml of TH9507 (1 mg/ml injectable solution) was administered by subcutaneous injection under fasting conditions once daily for 7 consecutive days (daily dose of 2 mg TH9507).
N=58 healthy adult (male and female) subjects were enrolled. Dosing occurred in two groups.
PK/statistics: PK parameters were calculated using standard noncompartmental approaches.

CYP3A = test: Impact of TH9507 on CYP3A activity (simvastatin drug interaction studies); type: in vivo, human; settings: 2 mg TH9507 days 1 to 7, 80 mg simvastatin as CYP3A substrate on Day 6
Text: The final ANOVA models included group, sequence, treatment, and period nested within group as fixed effects and subject nested within group-by-sequence as a random effect. The treatment-by-group term was excluded from the models for the groups combined, to be conservative.

[2] = both sexes, human, plasma, sc, 2 mg

Question: Which results are given for CCC(C)(C)C(=O)O[C@H]1C[C@@H](C)C=C2C=C[C@H](C)[C@H](CC[C@@H](O)C[C@@H](O)CC(=O)O)[C@H]21 [Simvastatin Acid, simvastatin acid]?
Answer: AUC(0-inf) (clinical; in vivo, po): 46.8 ng·h/mL; AUC(0-t) (clinical; in vivo, po): 43.4 ng·h/mL; Cmax (clinical; in vivo, po): 4.33 ng/mL; Tmax (clinical; in vivo, po): 4.5 h; half-life (clinical; in vivo, po): 8.07 h; AUC(0-inf) (clinical; in vivo, sc): 39.9 ng·h/mL; AUC(0-t) (clinical; in vivo, sc): 37.5 ng·h/mL; Cmax (clinical; in vivo, sc): 4.28 ng/mL; Tmax (clinical; in vivo, sc): 4.5 h; half-life (clinical; in vivo, sc): 6.91 h; AUC0-inf, A/B Ratio (%) (clinical; both, in vivo): 85.2%; AUC0-t, A/B Ratio (%) (clinical; both, in vivo): 86.3%; Cmax, A/B Ratio (%) (clinical; both, in vivo): 99.0%

Question: Which results are given for CCC(C)(C)C(=O)O[C@H]1C[C@@H](C)C=C2C=C[C@H](C)[C@H](CC[C@@H]3C[C@@H](O)CC(=O)O3)[C@H]21 [Simvastatin, (1S,3R,7S,8S,8aR)-8-{2-[(2R,4R)-4-hydroxy-6-oxooxan-2-yl]ethyl}-3,7-dimethyl-1,2,3,7,8,8a-hexahydronaphthalen-1-yl 2,2-dimethylbutanoate, reference compound]?
Answer: half-life (clinical; plasma, po, read-out: T1/2, Treatment B (converted)): 8.56 h; half-life (clinical; plasma, sc, read-out: T1/2, Treatment A (converted)): 7.62 h

Question: Which Tmax ([1]; TH9507 2 mg s.c. once daily, day 6 samples, simvastatin studies, median) does the source give for CC/C=C/CC(=O)N[C@@H](Cc1ccc(O)cc1)C(=O)N[C@@H](C)C(=O)N[C@@H](CC(=O)O)C(=O)N[C@@H](C)C(=O)N[C@H](C(=O)N[C@@H](Cc1ccccc1)C(=O)N[C@H](C(=O)N[C@@H](CC(N)=O)C(=O)N[C@@H](CO)C(=O)N[C@@H](Cc1ccc(O)cc1)C(=O)N[C@@H](CCCNC(=N)N)C(=O)N[C@@H](CCCCN)C(=O)N[C@H](C(=O)N[C@@H](CC(C)C)C(=O)NCC(=O)N[C@@H](CCC(N)=O)C(=O)N[C@@H](CC(C)C)C(=O)N[C@@H](CO)C(=O)N[C@@H](C)C(=O)N[C@@H](CCCNC(=N)N)C(=O)N[C@@H](CCCCN)C(=O)N[C@@H](CC(C)C)C(=O)N[C@@H](CC(C)C)C(=O)N[C@@H](CCC(N)=O)C(=O)N[C@@H](CC(=O)O)C(=O)N[C@H](C(=O)N[C@@H](CCSC)C(=O)N[C@@H](CO)C(=O)N[C@@H](CCCNC(=N)N)C(=O)N[C@@H](CCC(N)=O)C(=O)N[C@@H](CCC(N)=O)C(=O)NCC(=O)N[C@@H](CCC(=O)O)C(=O)N[C@@H](CO)C(=O)N[C@@H](CC(N)=O)C(=O)N[C@@H](CCC(N)=O)C(=O)N[C@@H](CCC(=O)O)C(=O)N[C@@H](CCCNC(=N)N)C(=O)NCC(=O)N[C@@H](C)C(=O)N[C@@H](CCCNC(=N)N)C(=O)N[C@@H](C)C(=O)N[C@@H](CCCNC(=N)N)C(=O)N[C@@H](CC(C)C)C(N)=O)[C@@H](C)CC)C(C)C)[C@@H](C)O)[C@@H](C)CC [TH9507, (hexenoyl trans-3)hGRF(1-44)NH2] here?
Answer: The Tmax was 9 min.

Question: What about the AUC(0-inf) [1, 2] of the same molecule?
Answer: The AUC(0-inf) was 1.05 ng·h/mL.

Question: What about the AUC(0-t) [1, 2] of the same molecule?
Answer: The AUC(0-t) was 0.888 ng·h/mL.

Question: And the Cmax [1, 2]?
Answer: The Cmax was 3.36 ng/mL.

Question: What about the half-life [1, 2] of the same molecule?
Answer: The half-life was 8.4 min.

Question: And the “impact on CYP3A activity” value (CYP3A)?
Answer: Its value is “not significant”.
